Two molecules from US20080299270A1, “Fat Taste Receptors and Their Methods of Use” (NESTEC S.A., priority 2005, published 2008) can be followed below.

For the assay, the system named is GPR40. The experiment in a line: two-bottle preference test of fat emulsions, GPR40 knockout vs normal mice. Format: in vivo, mouse. The following applies: GPR40 knockout mice compared to control mice; fat emulsion vs vehicle only, two drinking bottles. From the text:
A preference ratio of 0.5 indicates indifference, above 0.5 indicates preference and below 0.5 indicates avoidance. Both preference and intake of fat are diminished in the GPR40 KO mice compared to control mice. The stars show the concentrations of lipids at which the differences of intake or preference between knockout and control mice are statistically significant. […] The fat emulsions contained corn oil, Intralipid, lauric acid or oleic acid. When compared with normal mice, the knockout animals drank less fat. […] Because mice can still detect fat in the absence of GPR40, another receptor, probably GPR120, must also play a role in fat taste signaling.

As to `CCCCCCCCCCCC(=O)O` [lauric acid], the “intake of fat emulsion” value is “diminished” and the “preference for fat emulsion” value was “diminished”.

Take `CCCCCCCC/C=C\CCCCCCCC(=O)O` [oleic acid]: the “intake of fat emulsion” value is given as “diminished” and the “preference for fat emulsion” value is listed as “diminished”.
